Test results reported in PMC4050382, “A novel proteasome inhibitor suppresses tumor growth via targeting both 19S proteasome deubiquitinases and 20S proteolytic peptidases” (Scientific Reports, 2014).
pIC50: −log10 of the molar value.

Target: T1, 20S proteasome (CT-like peptidase, β5 subunit) (Homo sapiens, UniProt P28074)
T1 construct: gene PSMB5; purified 20S proteasome; with 20S proteasome
T1 sequence (P28074 60-263): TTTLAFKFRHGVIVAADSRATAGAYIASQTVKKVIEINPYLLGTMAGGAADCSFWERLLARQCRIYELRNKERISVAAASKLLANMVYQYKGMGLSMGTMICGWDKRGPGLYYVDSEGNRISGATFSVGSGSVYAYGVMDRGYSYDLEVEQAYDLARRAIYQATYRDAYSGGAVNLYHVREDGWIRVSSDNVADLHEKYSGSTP
Assay: fluorogenic CT-like peptidase assay with purified […] proteasome
Format: biochemical

Compound: [O-][n+]1ccccc1[S][Cu][S]c1cccc[n+]1[O-] [L1, CuPT]
- pIC50: ~5.22
